Data reported in PubChem BioAssay (NCI).
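Grown in 96-well plates, cells were treated for 48 hours with each compound at five concentrations. Insufficient inhibition: endpoint recorded as highest concentration tested. TGI marks complete inhibition of growth.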

Key:
Assay in all cases: NCI tumour cell line growth inhibition, 48 h
786-0 renal = system: 786-0 renal
A498 renal = system: A498 renal
A549 NSCLC = system: A549 NSCLC
ACHN renal = system: ACHN renal
CCRF-CEM leukemia = system: CCRF-CEM leukemia
COLO 205 colon = system: COLO 205 colon
DLD-1 colon = system: DLD-1 colon
DMS 114 small cell lung = system: DMS 114 small cell lung
DMS 273 small cell lung = system: DMS 273 small cell lung
EKVX NSCLC = system: EKVX NSCLC
HCC-2998 colon = system: HCC-2998 colon
HCT-116 colon = system: HCT-116 colon
HCT-15 colon = system: HCT-15 colon
HL-60(TB) leukemia = system: HL-60(TB) leukemia
HOP-18 NSCLC = system: HOP-18 NSCLC
HOP-62 NSCLC = system: HOP-62 NSCLC
HOP-92 NSCLC = system: HOP-92 NSCLC
HT29 colon = system: HT29 colon
IGROV1 ovarian = system: IGROV1 ovarian
K-562 leukemia = system: K-562 leukemia
KM12 colon = system: KM12 colon
KM20L2 colon = system: KM20L2 colon
LOX IMVI melanoma = system: LOX IMVI melanoma
LXFL 529 NSCLC = system: LXFL 529 NSCLC
M14 melanoma = system: M14 melanoma
M19-MEL melanoma = system: M19-MEL melanoma
MALME-3M melanoma = system: MALME-3M melanoma
MOLT-4 leukemia = system: MOLT-4 leukemia
NCI-H226 lung = system: NCI-H226 lung
NCI-H23 lung = system: NCI-H23 lung
NCI-H460 lung = system: NCI-H460 lung
NCI-H522 lung = system: NCI-H522 lung
OVCAR-3 ovarian = system: OVCAR-3 ovarian
OVCAR-4 ovarian = system: OVCAR-4 ovarian
OVCAR-5 ovarian = system: OVCAR-5 ovarian
OVCAR-8 ovarian = system: OVCAR-8 ovarian
RPMI-8226 leukemia = system: RPMI-8226 leukemia
RXF 393 renal = system: RXF 393 renal
RXF-631 renal = system: RXF-631 renal
SF-268 CNS = system: SF-268 CNS
SF-295 CNS = system: SF-295 CNS
SF-539 CNS = system: SF-539 CNS
SK-MEL-2 melanoma = system: SK-MEL-2 melanoma
SK-MEL-28 melanoma = system: SK-MEL-28 melanoma
SK-MEL-5 melanoma = system: SK-MEL-5 melanoma
SK-OV-3 ovarian = system: SK-OV-3 ovarian
SN12C renal = system: SN12C renal
SNB-19 CNS = system: SNB-19 CNS
SNB-75 CNS = system: SNB-75 CNS
SNB-78 CNS = system: SNB-78 CNS
SR leukemia = system: SR leukemia
SW-620 colon = system: SW-620 colon
TK-10 renal = system: TK-10 renal
U251 CNS = system: U251 CNS
UACC-257 melanoma = system: UACC-257 melanoma
UACC-62 melanoma = system: UACC-62 melanoma
UO-31 renal = system: UO-31 renal
BT-549 breast = system: BT-549 breast
CAKI-1 renal = system: CAKI-1 renal
DU-145 prostate = system: DU-145 prostate
HS 578T breast = system: HS 578T breast
MCF7 breast = system: MCF7 breast
MDA-MB-231 breast = system: MDA-MB-231 breast
MDA-MB-435 = system: MDA-MB-435
MDA-N = system: MDA-N
NCI/ADR-RES ovarian = system: NCI/ADR-RES ovarian
PC-3 prostate = system: PC-3 prostate
T-47D breast = system: T-47D breast
XF 498 CNS = system: XF 498 CNS

Cc1ccccc1NC(=O)/C(=N\NC(N)=S)C(C#N)c1ccccc1 (stereo unspecified)
TGI (786-0 renal): > 100 µM
TGI (A498 renal): > 100 µM
TGI (A549 NSCLC): > 100 µM
TGI (ACHN renal): > 100 µM
TGI (CCRF-CEM leukemia): > 100 µM
TGI (COLO 205 colon): > 100 µM
TGI (DLD-1 colon): > 100 µM
TGI (DMS 114 small cell lung): > 100 µM
TGI (DMS 273 small cell lung): > 100 µM
TGI (EKVX NSCLC): > 100 µM
TGI (HCC-2998 colon): > 100 µM
TGI (HCT-116 colon): > 100 µM
TGI (HCT-15 colon): > 100 µM
TGI (HL-60(TB) leukemia): > 100 µM
TGI (HOP-18 NSCLC): > 100 µM
TGI (HOP-62 NSCLC): > 100 µM
TGI (HOP-92 NSCLC): > 100 µM
TGI (HT29 colon): > 100 µM
TGI (IGROV1 ovarian): > 100 µM
TGI (K-562 leukemia): > 100 µM
TGI (KM12 colon): > 100 µM
TGI (KM20L2 colon): > 100 µM
TGI (LOX IMVI melanoma): > 100 µM
TGI (LXFL 529 NSCLC): > 100 µM
TGI (M14 melanoma): > 100 µM
TGI (M19-MEL melanoma): > 100 µM
TGI (MALME-3M melanoma): > 100 µM
TGI (MOLT-4 leukemia): > 100 µM
TGI (NCI-H226 lung): > 100 µM
TGI (NCI-H23 lung): > 100 µM
TGI (NCI-H460 lung): > 100 µM
TGI (NCI-H522 lung): > 100 µM
TGI (OVCAR-3 ovarian): > 100 µM
TGI (OVCAR-4 ovarian): > 100 µM
TGI (OVCAR-5 ovarian): > 100 µM
TGI (OVCAR-8 ovarian): > 100 µM
TGI (RPMI-8226 leukemia): > 100 µM
TGI (RXF 393 renal): > 100 µM
TGI (RXF-631 renal): > 100 µM
TGI (SF-268 CNS): > 100 µM
TGI (SF-295 CNS): > 100 µM
TGI (SF-539 CNS): > 100 µM
TGI (SK-MEL-2 melanoma): > 100 µM
TGI (SK-MEL-28 melanoma): > 100 µM
TGI (SK-MEL-5 melanoma): > 100 µM
TGI (SK-OV-3 ovarian): > 100 µM
TGI (SN12C renal): > 100 µM
TGI (SNB-19 CNS): > 100 µM
TGI (SNB-75 CNS): > 100 µM
TGI (SNB-78 CNS): > 100 µM
TGI (SR leukemia): > 100 µM
TGI (SW-620 colon): > 100 µM
TGI (TK-10 renal): > 100 µM
TGI (U251 CNS): > 100 µM
TGI (UACC-257 melanoma): > 100 µM
TGI (UACC-62 melanoma): > 100 µM
TGI (UO-31 renal): > 100 µM

CN(C)[C@@H]1C(=O)C(C(=O)NCNc2nc3n[nH]nc3c(=O)[nH]2)=C(O)[C@@]2(O)C(=O)C3=C(O)c4c(O)cccc4[C@@](C)(O)[C@H]3C[C@@H]12
TGI (786-0 renal): > 100 µM
TGI (A498 renal): > 100 µM
TGI (A549 NSCLC): > 100 µM
TGI (ACHN renal): > 100 µM
TGI (BT-549 breast): > 100 µM
TGI (CAKI-1 renal): > 100 µM
TGI (CCRF-CEM leukemia): > 17.7 µM
TGI (COLO 205 colon): 57.4 µM
TGI (DLD-1 colon): > 77.8 µM
TGI (DMS 114 small cell lung): 13.8 µM
TGI (DMS 273 small cell lung): > 100 µM
TGI (DU-145 prostate): 22.5 µM
TGI (EKVX NSCLC): > 69.5 µM
TGI (HCC-2998 colon): > 100 µM
TGI (HCT-116 colon): 24.7 µM
TGI (HCT-15 colon): > 100 µM
TGI (HL-60(TB) leukemia): 11.6 µM
TGI (HOP-18 NSCLC): > 100 µM
TGI (HOP-62 NSCLC): 27.2 µM
TGI (HOP-92 NSCLC): > 30 µM
TGI (HS 578T breast): 53.5 µM
TGI (HT29 colon): > 100 µM
TGI (IGROV1 ovarian): > 100 µM
TGI (K-562 leukemia): > 16.9 µM
TGI (KM12 colon): > 100 µM
TGI (KM20L2 colon): > 68.9 µM
TGI (LOX IMVI melanoma): 17.3 µM
TGI (LXFL 529 NSCLC): > 100 µM
TGI (M14 melanoma): 15.8 µM
TGI (M19-MEL melanoma): 15 µM
TGI (MALME-3M melanoma): 13.1 µM
TGI (MCF7 breast): > 100 µM
TGI (MDA-MB-231 breast): > 100 µM
TGI (MDA-MB-435): 7.35 µM
TGI (MDA-N): 14.5 µM
TGI (MOLT-4 leukemia): > 17.2 µM
TGI (NCI-H226 lung): 56.9 µM
TGI (NCI-H23 lung): > 100 µM
TGI (NCI-H460 lung): > 97.1 µM
TGI (NCI-H522 lung): > 80.3 µM
TGI (NCI/ADR-RES ovarian): > 100 µM
TGI (OVCAR-3 ovarian): > 74.2 µM
TGI (OVCAR-4 ovarian): > 58.3 µM
TGI (OVCAR-5 ovarian): 98.6 µM
TGI (OVCAR-8 ovarian): > 100 µM
TGI (PC-3 prostate): > 100 µM
TGI (RPMI-8226 leukemia): 6.7 µM
TGI (RXF 393 renal): 5.37 µM
TGI (RXF-631 renal): > 47.5 µM
TGI (SF-268 CNS): > 92.2 µM
TGI (SF-295 CNS): > 100 µM
TGI (SF-539 CNS): 8.88 µM
TGI (SK-MEL-2 melanoma): 3.09 µM
TGI (SK-MEL-28 melanoma): 22.1 µM
TGI (SK-MEL-5 melanoma): 10.9 µM
TGI (SK-OV-3 ovarian): 8.25 µM
TGI (SN12C renal): > 91.2 µM
TGI (SNB-19 CNS): > 100 µM
TGI (SNB-75 CNS): > 95.8 µM
TGI (SNB-78 CNS): > 100 µM
TGI (SR leukemia): > 19.5 µM
TGI (SW-620 colon): > 56.2 µM
TGI (T-47D breast): > 100 µM
TGI (TK-10 renal): > 80.5 µM
TGI (U251 CNS): > 61.3 µM
TGI (UACC-257 melanoma): > 87.8 µM
TGI (UACC-62 melanoma): 7.59 µM
TGI (UO-31 renal): 18.5 µM
TGI (XF 498 CNS): > 26.9 µM
